Data: ChEMBL document CHEMBL3046180, “Antifungal activity of some diaryl ethers” (2007)

Tests used:
Format in all cases: functional
Conditions in all cases: 96 h, read-out: GI
Bipolaris sorokiniana [1] = test: Growth inhibition of Bipolaris sorokiniana at 50 ug/ml after 4 days by poisoned food technique
Bipolaris sorokiniana [2] = test: Growth inhibition of Bipolaris sorokiniana at 500 ug/ml after 4 days by poisoned food technique
Alternaria brassicae [3] = test: Growth inhibition of Alternaria brassicae at 50 ug/ml after 4 days by poisoned food technique
Alternaria brassicae [4] = test: Growth inhibition of Alternaria brassicae at 500 ug/ml after 4 days by poisoned food technique
[5] = system: Fusarium oxysporum f. sp. cucumerinum; test: Growth inhibition of Fusarium oxysporum f. sp. cucumerinum at 50 ug/ml after 4 days by poisoned food technique
[6] = system: Fusarium oxysporum f. sp. cucumerinum; test: Growth inhibition of Fusarium oxysporum f. sp. cucumerinum at 500 ug/ml after 4 days by poisoned food technique
[7] = system: Fusarium oxysporum f. sp. vasinfectum; test: Growth inhibition of Fusarium oxysporum f. sp. vasinfectum at 50 ug/ml after 4 days by poisoned food technique
[8] = system: Fusarium oxysporum f. sp. vasinfectum; test: Growth inhibition of Fusarium oxysporum f. sp. vasinfectum at 500 ug/ml after 4 days by poisoned food technique
Pyricularia oryzae [9] = test: Growth inhibition of Magnaporthe oryzae at 50 ug/ml after 4 days by poisoned food technique
Pyricularia oryzae [10] = test: Growth inhibition of Magnaporthe oryzae at 500 ug/ml after 4 days by poisoned food technique
Alternaria alternata [11] = test: Growth inhibition of Alternaria alternata at 50 ug/ml after 4 days by poisoned food technique
Fusarium graminearum [12] = test: Growth inhibition of Fusarium graminearum at 500 ug/ml after 4 days by poisoned food technique
Alternaria alternata [13] = test: Growth inhibition of Alternaria alternata at 500 ug/ml after 4 days by poisoned food technique
Fusarium graminearum [14] = test: Growth inhibition of Fusarium graminearum at 50 ug/ml after 4 days by poisoned food technique

| Compound | inhibition of growth at 50 µg/mL (Bipolaris sorokiniana [1]) [%] | inhibition of growth at 500 µg/mL (Bipolaris sorokiniana [2]) [%] | inhibition of growth at 50 µg/mL (Alternaria brassicae [3]) [%] | inhibition of growth at 500 µg/mL (Alternaria brassicae [4]) [%] | inhibition of growth at 50 µg/mL [5] [%] | inhibition of growth at 500 µg/mL [6] [%] | inhibition of growth at 50 µg/mL [7] [%] | inhibition of growth at 500 µg/mL [8] [%] | inhibition of growth at 50 µg/mL (Pyricularia oryzae [9]) [%] | inhibition of growth at 500 µg/mL (Pyricularia oryzae [10]) [%] | inhibition of growth at 50 µg/mL (Alternaria alternata [11]) [%] | inhibition of growth at 500 µg/mL (Fusarium graminearum [12]) [%] | inhibition of growth at 500 µg/mL (Alternaria alternata [13]) [%] | inhibition of growth at 50 µg/mL (Fusarium graminearum [14]) [%] |
| --- | --- | --- | --- | --- | --- | --- | --- | --- | --- | --- | --- | --- | --- | --- |
| O=[N+]([O-])c1ccc(Oc2ccccc2Cl)cc1 | 89.5 | 66 | 36 | 65.3 | 38.8 | 75.5 | 47.5 | 55.6 | 47.8 | 77.5 | 60.4 | 92.8 | 81.9 | 79.5 |
| O=[N+]([O-])c1ccc(Oc2ccccc2)cc1 | 87.2 | 73 | 55.5 | 76 | 61.2 | 72.9 | 81.8 | 83.4 | 48 | 81.9 | 66.8 | 87.4 | 83.8 | 71.6 |
| CC(C)(C)c1ccc(Oc2ccc([N+](=O)[O-])cc2)cc1 | 21.6 | 23.5 | 32 | 32 | 3.6 | 10.3 | 14.1 | 67.7 | 32 | 40.4 | 25.5 | 56 | 27.7 | 55.6 |
| O=[N+]([O-])c1ccc(Oc2ccccc2[N+](=O)[O-])cc1 [2,4'-OXYBIS(NITROBENZENE)] | 42.2 | 35.3 | 8.5 | 49.6 | 9.3 | 33.3 | 19.3 | 42.7 | 31.4 | 47.1 | 49.3 | 68.7 | 56.3 | 66.2 |
| Cc1cccc(Oc2ccc([N+](=O)[O-])cc2)c1 | 44.4 | 32 | 37.3 | 52.8 | 57.9 | 64.6 | 65.1 | 74.3 | 39.2 | 60.3 | 48.4 | 92.4 | 61.2 | 62.8 |
| N#Cc1ccccc1Oc1ccc(Cl)cc1 | 68 | 56.2 | 56.8 | 74.1 | 48.8 | 54.3 | 52.5 | 57 | 59.7 | 77.7 | 55.9 | 83.7 | 78 | 79.6 |
| Cc1cc(O)no1 [HYMEXAZOL] | 100 | 37.1 | 89 | 100 | 19.8 | 91.5 | 45.8 | 92.3 | 66.4 | 100 | 82.3 | 99.4 | 100 | 38.7 |
